Measurements from PubChem BioAssay AID248 (DTP/NCI, 2004).
Several values for one entry are separate records, joined by “and”; a condition that tells them apart may be missing. Equal entries are not always repeated. Toxic doses and inconclusive results are not listed. Rule as the data show it: active = T/C of 150% or more; inactive = T/C below 125%.

Test system: L1210 leukemia ip in BDF1 mice, survival T/C
Test: NCI In Vivo Anticancer Drug Screen. Data for tumor model L1210 Leukemia (intraperitoneal) in B6D2F1 (BDF1) mice
Conditions: endpoint: mean survival time, higher = longer survival
How it was run: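 Transplanted-tumor mice were given test agent; controls received vehicle only. Survival readings from the two groups were divided (treated over control).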

[1] = dose: 25.0 mg/kg/injection, schedule: Q01DX009 (ip), vehicle: saline
[2] = dose: 50.0 mg/kg/injection, schedule: Q01DX009 (ip), vehicle: saline
[3] = dose: 100.0 mg/kg/injection, schedule: Q01DX009 (ip), vehicle: saline
[4] = dose: 100.0 mg/kg/injection, schedule: Q04DX003 (ip), vehicle: Klucel (hydroxypropylcellulose) (HPC)
[5] = dose: 200.0 mg/kg/injection, schedule: Q04DX003 (ip), vehicle: Klucel (hydroxypropylcellulose) (HPC)
[6] = dose: 400.0 mg/kg/injection, schedule: Q04DX003 (ip), vehicle: Klucel (hydroxypropylcellulose) (HPC)
[7] = dose: 100.0 mg/kg/injection, schedule: Q01DX001 (ip), vehicle: saline
[8] = dose: 200.0 mg/kg/injection, schedule: Q01DX001 (ip), vehicle: saline
[9] = dose: 400.0 mg/kg/injection, schedule: Q01DX001 (ip), vehicle: saline
[10] = dose: 100.0 mg/kg/injection, schedule: Q04DX003 (ip), vehicle: saline
[11] = dose: 200.0 mg/kg/injection, schedule: Q04DX003 (ip), vehicle: saline
[12] = dose: 400.0 mg/kg/injection, schedule: Q04DX003 (ip), vehicle: saline
[13] = dose: 6.25 mg/kg/injection, schedule: Q01DX001 (ip), vehicle: saline with Tween-80
[14] = dose: 12.5 mg/kg/injection, schedule: Q01DX001 (ip), vehicle: saline with Tween-80
[15] = dose: 25.0 mg/kg/injection, schedule: Q01DX001 (ip), vehicle: saline with Tween-80
[16] = dose: 100.0 mg/kg/injection, schedule: Q01DX009 (ip), vehicle: Klucel (hydroxypropylcellulose) (HPC)
[17] = dose: 200.0 mg/kg/injection, schedule: Q01DX009 (ip), vehicle: Klucel (hydroxypropylcellulose) (HPC)
[18] = dose: 400.0 mg/kg/injection, schedule: Q01DX009 (ip), vehicle: Klucel (hydroxypropylcellulose) (HPC)

Measured: T/C

O=C(CCCN1CCC(n2c(=O)[nH]c3ccccc32)CC1)c1ccc(F)cc1
inactive: dose: 6.25 mg/kg/injection, schedule: Q01DX009 (ip), vehicle: Klucel (hydroxypropylcellulose) (HPC) 92 % of control | dose: 12.5 mg/kg/injection, schedule: Q01DX009 (ip), vehicle: Klucel (hydroxypropylcellulose) (HPC) 113 % of control | dose: 12.5 mg/kg/injection, schedule: Q01DX009 (ip), vehicle: saline 102 % of control | dose: 25.0 mg/kg/injection, schedule: Q01DX009 (ip), vehicle: Klucel (hydroxypropylcellulose) (HPC) 120 % of control | [1] 110 % of control | dose: 25.0 mg/kg/injection, schedule: Q04DX003 (ip), vehicle: Klucel (hydroxypropylcellulose) (HPC) 98 % of control and 90 % of control | dose: 50.0 mg/kg/injection, schedule: Q01DX009 (ip), vehicle: Klucel (hydroxypropylcellulose) (HPC) 96 % of control | [2] 93 % of control | dose: 50.0 mg/kg/injection, schedule: Q04DX003 (ip), vehicle: Klucel (hydroxypropylcellulose) (HPC) 96 % of control | [3] 93 % of control | [4] 91 % of control and 111 % of control | [5] 110 % of control | [6] 97 % of control

c1ccc(C(=NC(c2ccccc2)c2ccccc2)c2ccccc2)cc1
inactive: dose: 50.0 mg/kg/injection, schedule: Q01DX001 (ip), vehicle: saline 98 % of control | [7] 98 % of control | [8] 96 % of control | [9] 98 % of control

O=C1c2ccccc2C(=O)N1CCCCCCN1C(=O)c2ccccc2C1=O
inactive: dose: 100.0 mg/kg/injection, schedule: Q04DX002 (ip), vehicle: gum acacia 96 % of control | dose: 200.0 mg/kg/injection, schedule: Q04DX002 (ip), vehicle: gum acacia 107 % of control | dose: 400.0 mg/kg/injection, schedule: Q04DX002 (ip), vehicle: gum acacia 101 % of control

COc1ccc(CC2Cc3cc(OC)c(OC)cc3C=N2)cc1OC (stereo unspecified)
inactive: [3] 100 % of control | [10] 98 % of control | dose: 200.0 mg/kg/injection, schedule: Q01DX009 (ip), vehicle: saline 100 % of control | [11] 93 % of control | [12] 91 % of control

C/C(=N\O)c1ccc2nc(C)cc(Cl)c2c1
inactive: [7] 102 % of control | [8] 109 % of control | [9] 95 % of control

CCCCCCCCCCCCCNCCCCCCCCCCCCC
inactive: [10] 96 % of control | [11] 92 % of control | [12] 96 % of control

O=C(NS(=O)(=O)c1ccc(Cl)cc1)c1ccccc1
inactive: dose: 100.0 mg/kg/injection, schedule: Q01DX009 (ip), vehicle: saline with Tween-80 94 % of control | dose: 100.0 mg/kg/injection, schedule: Q04DX003 (ip), vehicle: acetone 104 % of control | dose: 200.0 mg/kg/injection, schedule: Q04DX003 (ip), vehicle: acetone 107 % of control | dose: 400.0 mg/kg/injection, schedule: Q04DX003 (ip), vehicle: acetone 93 % of control

Nc1nc(N)nc(CCN2CCCCC2)n1
inactive: [13] 94 % of control | [14] 102 % of control | [15] 102 % of control

O=C1c2ccccc2S(=O)(=O)N1CCCBr
inactive: [16] 89 % of control | [17] 89 % of control | [18] 89 % of control

O=[As](O)(c1ccccc1)C1CCCCC1O (stereo unspecified)
inactive: [13] 97 % of control | [14] 98 % of control | [15] 111 % of control

O=C(Nc1ccc(C(=O)Nc2ccc(C3=NCCCN3)cc2)cc1)Nc1ccc(C2=NCCCN2)cc1
inactive: dose: 0.94 mg/kg/injection, schedule: Q01DX Z (ip), vehicle: saline 103 % of control | dose: 1.88 mg/kg/injection, schedule: Q01DX Z (ip), vehicle: saline 117 % of control | dose: 18.8 mg/kg/injection, schedule: Q01DX004 (oral), vehicle: saline 94 % of control | dose: 37.5 mg/kg/injection, schedule: Q01DX009 (oral), vehicle: saline 91 % of control | dose: 75.0 mg/kg/injection, schedule: Q01DX009 (oral), vehicle: saline 93 % of control | dose: 150.0 mg/kg/injection, schedule: Q01DX004 (oral), vehicle: saline 93 % of control

N=C(N=C(N)N)N(Cc1ccccc1)Cc1ccccc1
inactive: dose: 6.25 mg/kg/injection, schedule: Q01DX009 (ip), vehicle: water 103 % of control | dose: 6.25 mg/kg/injection, schedule: Q04DX003 (ip), vehicle: water 97 % of control | dose: 12.5 mg/kg/injection, schedule: Q01DX001 (ip), vehicle: water 107 % of control | dose: 12.5 mg/kg/injection, schedule: Q01DX009 (ip), vehicle: water 101 % of control | dose: 12.5 mg/kg/injection, schedule: Q04DX003 (ip), vehicle: water 103 % of control | dose: 25.0 mg/kg/injection, schedule: Q01DX001 (ip), vehicle: water 100 % of control | dose: 25.0 mg/kg/injection, schedule: Q01DX009 (ip), vehicle: water 101 % of control | dose: 25.0 mg/kg/injection, schedule: Q04DX003 (ip), vehicle: water 96 % of control

CC(C)OCc1c(N)nc(=S)[nH]c1C(=O)O
inactive: dose: 12.0 mg/kg/injection, schedule: Q01DX009 (ip), vehicle: saline 90 % of control | [1] 97 % of control | dose: 25.0 mg/kg/injection, schedule: Q04DX003 (ip), vehicle: saline 106 % of control | [2] 103 % of control and 92 % of control | dose: 50.0 mg/kg/injection, schedule: Q04DX003 (ip), vehicle: saline 97 % of control | [10] 102 % of control and 90 % of control

COc1cc2c(cc1OC(C)=O)C(=O)CCCC2
inactive: [4] 91 % of control | [5] 97 % of control | [6] 96 % of control

BrC[Si](c1ccccc1)(c1ccccc1)c1ccccc1
inactive: dose: 100.0 mg/kg/injection, schedule: Q04DX002 (ip), vehicle: saline with Tween-80 96 % of control | dose: 200.0 mg/kg/injection, schedule: Q04DX002 (ip), vehicle: saline with Tween-80 96 % of control | dose: 400.0 mg/kg/injection, schedule: Q04DX002 (ip), vehicle: saline with Tween-80 92 % of control

COc1ccccc1NC(=O)c1ccc(Cl)cc1
inactive: [16] 91 % of control | [4] 105 % of control | [17] 98 % of control | [5] 108 % of control | [18] 102 % of control | [6] 97 % of control
